Test: Human HepG2 cell viability assay in 384 well format
Type: toxicity, cell-based
Parameters: dose 125 nL, time 70.5 hour; cytotoxicity at 70.5 h: concentration not given beside the values
Conditions: HepG2 cells, read-out: Inhibition

| SMILES | cytotoxicity at 70.5 h [%] |
| --- | --- |
| CCOc1nn(CC)cc1-c1nnc(SCc2cccnc2)n1CC | -7.15 |
| Cc1cc(CN2CCC(CNS(=O)(=O)c3c(C)noc3C)CC2)c(C)o1 | 2.34 |
| Cc1cc(CN2CCC(CNS(=O)(=O)c3ccc(Br)s3)CC2)c(C)o1 | -7.28 |
| CCOc1ccc(S(=O)(=O)NCCc2ccc(N(C)C)cc2)cc1F | -1.54 |
| O=C(CCc1ccccc1)NCC1CCN(Cc2cccs2)CC1 | -8.06 |
| COCC(=O)NCC1CCN(Cc2ccsc2)CC1 | 33.7 |
| O=C(COc1ccccc1)NCC1CCN(Cc2ccsc2)CC1 | -4.27 |
| O=C(CCSc1ccccc1)NCC1CCN(Cc2ccsc2)CC1 | 4.4 |
| CCCc1nnsc1C(=O)NCC1CCN(c2ncccn2)CC1 | -13.9 |
| O=C(NCCS(=O)(=O)N1CCN(c2ncccn2)CC1)C1CCCC1 | -5.6 |
| O=C(NCCS(=O)(=O)N1CCN(c2ncccn2)CC1)c1ccccc1 | -7.9 |
| CCCS(=O)(=O)N1CCN(c2ccc3nnc(CC)n3n2)CC1 | -12.7 |
| COc1ccc(C(=O)NCC(c2cccn2C)N2CCCC2)cc1OC (configuration not stated) | -4.98 |
| COc1ccccc1C(=O)NCC(c1cccn1C)N1CCOCC1 (configuration not stated) | -6.22 |
| Cc1ccc(C)c(C(=O)NCC(c2cccn2C)N2CCCCCC2)c1 (configuration not stated) | -1.53 |
| CC(=O)Nc1cc(C2CC2)nn1-c1nc(C)c(C)c(=O)[nH]1 | 38.4 |
| CCc1c(C)nc(-n2nc(C3CC3)cc2NC(C)=O)[nH]c1=O | 1.53 |
| Cn1nc2c(c1NC(=O)c1ccc(Cl)s1)CCC2 | -8.38 |
| Cc1cc(=O)[nH]c(-n2nc(C)c(CCC(=O)NCc3ccco3)c2C)n1 | 31.1 |
| Cc1cc(=O)[nH]c(-n2nc(C)c(CCC(=O)Nc3nc(C)cs3)c2C)n1 | -3.34 |
| Cc1cc(=O)[nH]c(-n2nc(C)c(CCC(=O)NCC(C)C)c2C)n1 | -4.48 |
| Cc1nnc(NC(=O)c2c3c(nn2C2CCS(=O)(=O)C2)CCC3)s1 (configuration not stated) | -4.4 |
| CCc1nnc(NC(=O)c2c3c(nn2C2CCS(=O)(=O)C2)CCC3)s1 (configuration not stated) | -6.09 |
| O=S(=O)(NCC1(c2cccs2)CCOCC1)c1ccc2c(c1)OCCO2 | 12 |

| SMILES | cytotoxicity at 70.5 h [%] |
| --- | --- |
| COc1cccc(NC(=O)Nc2ccc3c(c2)CC(=O)N3)c1 | -16.9 |
| O=S(=O)(c1cccnc1)N1CCN(Cc2nc(-c3cccs3)cs2)CC1 | -14.7 |
| CN(C)S(=O)(=O)NCCn1nc(-c2ccccc2)n(C)c1=O | -4.25 |
| COCCc1nnc(NC(=O)CCCc2ccccc2)o1 | -6.03 |
| Cc1noc(C)c1CCC(=O)NCCc1cccs1 | -7.09 |
| Cc1nccn1CC1CCN(C(=O)c2cccs2)CC1 | -17.8 |
| CN(C)S(=O)(=O)N1CCC(Cn2cccn2)CC1 | -7.21 |
| CCOc1ccc(S(=O)(=O)N(CCOC)Cc2ccncc2)cc1F | 35.3 |
| O=C(NCC(O)(c1ccco1)C1CC1)c1c(F)cccc1Cl (configuration not stated) | -0.808 |
| Cn1cccc1C(O)CNC(=O)c1ccc(F)c(F)c1 (configuration not stated) | -13.5 |
| Cn1cccc1C(O)CNC(=O)c1ccc(C(F)(F)F)cc1 (configuration not stated) | -20.6 |
| Cn1cccc1C(O)CNS(=O)(=O)Cc1ccccc1 (configuration not stated) | 12.5 |
| Cn1cccc1C(O)CNS(=O)(=O)c1ccccc1F (configuration not stated) | 3.03 |
| Cc1cc(F)ccc1S(=O)(=O)NCC(O)c1cccn1C (configuration not stated) | 0.803 |
| Cn1cccc1C(O)CNS(=O)(=O)c1ccccc1Br (configuration not stated) | -0.453 |
| COc1ccc(CC(=O)NCC(O)c2sccc2C)cc1OC (configuration not stated) | -6.12 |
| Cc1ccsc1C(O)CNS(=O)(=O)Cc1ccc(F)cc1 (configuration not stated) | -10.1 |
| COc1ccc(F)cc1S(=O)(=O)NCC(O)c1sccc1C (configuration not stated) | -2.63 |
| COc1ccc(S(=O)(=O)NCC(O)c2sccc2C)cc1Cl (configuration not stated) | 0.182 |
| O=C(NCc1cccs1)NCC(O)(c1cccs1)C1CC1 (configuration not stated) | -12.2 |
| O=C(NCc1ccc(F)cc1)NCC(O)(c1cccs1)C1CC1 (configuration not stated) | -8.72 |
| COc1ccc(CNC(=O)NCC(O)(c2cccs2)C2CC2)cc1 (configuration not stated) | -6.74 |
| CC(O)(CCc1ccccc1)CNC(=O)c1ccsc1 (configuration not stated) | -2.72 |
| CC(O)(CCc1ccccc1)CNC(=O)c1ccc(F)cc1 (configuration not stated) | 14.3 |

| SMILES | cytotoxicity at 70.5 h [%] |
| --- | --- |
| O=C(NCC1(O)CCCC1)c1ccc2nsnc2c1 | -20.9 |
| O=C(NCC(O)c1cccs1)c1ccco1 (configuration not stated) | -10.6 |
| CN(C)c1cccc(C(=O)NCC(O)c2cccs2)c1 (configuration not stated) | 20.3 |
| CC(=O)c1cccc(S(=O)(=O)NCC(C)(O)c2cccs2)c1 (configuration not stated) | -7.85 |
| COc1ccc(S(=O)(=O)NCC(C)(O)c2cccs2)cc1Cl (configuration not stated) | -10.5 |
| Cc1nc(C)c(CC(=O)NCc2ccccc2F)s1 | -11.1 |
| COC1CCN(C(=O)Cn2ccc3ccccc32)CC1 | -3.16 |
| O=C(Cn1cccn1)Nc1ccc(N2CCOCC2)cc1 | 0.51 |
| O=C(CNC(=O)c1c[nH]c2ccccc12)NCCCn1ccnc1 | -5.85 |
| Cc1cc(NC(=O)Cn2cnc(-c3cccs3)cc2=O)no1 | -2.01 |
| O=C(NCC1(CO)CC1)c1ccccc1F | -8.21 |
| COc1nn(C)cc1C(=O)NCC(=O)NCc1ccccn1 | -11 |
| COC1COC2(CCN(C(=O)c3ncccn3)CC2)C1 (configuration not stated) | 14.8 |
| O=C(NCc1ccccc1)N1Cc2nc(COCC3CC3)oc2C1 | 4.6 |
| O=C([C@@H]1CC[C@@H]2[C@@H](CCN2c2ncccn2)O1)N1CCCO1 | 11.8 |
| CC(=O)N1CC2(CCN(C(=O)C3CC3)CC2)c2cc(C)ccc21 | 6.48 |
| CN(Cc1cccnc1)C1CC2(CCN(C(=O)c3ccnnc3)CC2)C1 | -13.1 |
| Cc1ccoc1C(=O)N1CC[C@@]2(C[C@H](NS(C)(=O)=O)CCO2)C1 | -18.1 |
| Cc1ccc(N2CCC3(CCN(Cc4ccccn4)CC3)CC2)nn1 | -11.7 |
| CCC(=O)N1CCC2(CC1)CN(C(C)=O)c1ccc(C)cc12 | -9.39 |
| COc1ccc(CCNC(C)c2ccc3[nH]c(=O)[nH]c3c2)cc1OC (configuration not stated) | 3.32 |
| Cc1ncc(CN2CCCC(c3cc(C(N)=O)[nH]n3)C2)s1 (configuration not stated) | 57.9 |
| c1cnnc(N2CCCC(NCc3nc(-c4ccco4)no3)C2)c1 (configuration not stated) | 46.2 |
| CSc1ccc(C(=O)N2CCOCC2c2c(C)n[nH]c2C)o1 (configuration not stated) | 18.3 |

| SMILES | cytotoxicity at 70.5 h [%] |
| --- | --- |
| Cc1n[nH]c(C)c1C1COCCN1C(=O)c1n[nH]c2ccccc12 (configuration not stated) | 12.3 |
| Cc1ccoc1-c1nnc(CNC2CCCN(c3cccnn3)C2)o1 (configuration not stated) | 12.6 |
| CC(C)c1nnc2n1CCN(Cc1nc(-c3ccoc3)no1)C2 | 16.7 |
| Cc1ncsc1C(=O)N(C)Cc1cccnc1 | -9.5 |
| Cc1ccccc1C1(C(=O)NCCN2CCOCC2)CCOCC1 | -9.98 |
| Cc1cc(CNc2cccc(Cl)c2C)no1 | -17.1 |
| CCOc1ncccc1CNC(=O)c1cccc(C)n1 | -17.3 |
| Cc1n[nH]c(C)c1C1COCCN1C(=O)c1cc(F)ccc1F (configuration not stated) | -8.76 |
| Cc1n[nH]c(C)c1C1COCCN1C(=O)c1cccc(F)c1F (configuration not stated) | -15.7 |
| CN(C)c1cc(CNC(=O)Nc2ccc(C#N)cc2)ccn1 | -11.3 |
| NC(=O)C1CCN(C(=O)NCCOc2ccc3c(c2)CCC3)CC1 | -6.38 |
| CC(=O)NCC1CCN(C(=O)NCCOc2ccc3c(c2)CCC3)CC1 | -11.5 |
| COc1ccc(Cl)cc1NCc1cc(C)on1 | -3.4 |
| COc1ccc(OCCNC(=O)N2CCS(=O)(=O)CC2)cc1 | -7.97 |
| c1ccc(-n2cc(CNC3CCc4ncnn4C3)nn2)cc1 (configuration not stated) | -7.65 |
| O=C(O)c1cc(S(=O)(=O)N2CCOc3ccccc32)ccc1Br | -2.35 |
| Cc1ccc(NC(=O)C2CSCN2C(=O)c2cnccn2)cc1C (configuration not stated) | -9.37 |
| CSCCc1ccc(NC(=O)NCc2ccnc(N(C)C)c2)cc1 | 16.5 |
| Cc1oc(-c2ccco2)nc1CNC1CCCN(c2cccnn2)C1 (configuration not stated) | -9.89 |
| CC(=O)N1CCCN(C(=O)NCCOc2ccc3c(c2)CCC3)CC1 | -4.61 |
| Cc1noc(C)c1S(=O)(=O)NC(=O)COc1ccc2c(c1)CCC2 | -13.5 |
| CN(C)c1cc(CNc2ccc(S(=O)(=O)C(C)(C)C)nc2)ccn1 | 8.83 |
| Cc1cccc(C)c1OCC(=O)NS(=O)(=O)c1c(C)noc1C | -14.4 |
| Cc1n[nH]c(C)c1C1COCCN1C(=O)c1ccc2c(c1)CCO2 (configuration not stated) | -8 |

| SMILES | cytotoxicity at 70.5 h [%] |
| --- | --- |
| Cc1nn(C)c(N(C)C)c1CNCCCNS(C)(=O)=O | 4.14 |
| COCc1nc(C(=O)NS(=O)(=O)c2cc(Br)ccc2C)cs1 | 1.93 |
| O=C(c1cccc(N2CCCC2=O)c1)N1CCCC(n2cccn2)C1 (configuration not stated) | -6.59 |
| O=C(c1cccc(Cn2ccnc2)c1)N1CCCC(n2cccn2)C1 (configuration not stated) | 5.77 |
| CCOc1ccc(C(=O)N2CCN(c3nccn3C)CC2)cc1 | -0.809 |
| Cn1ccnc1N1CCN(C(=O)Cc2ccccc2)CC1 | -8.11 |
| COc1ccc(CC(=O)N2CCN(c3nccn3C)CC2)cc1 | -1.27 |
| Cc1cccc(CC(=O)N2CCN(c3nccn3C)CC2)c1 | -1.55 |
| CCOc1ccc(CC(=O)N2CCN(c3nccn3CC)CC2)cc1 | -1.22 |
| CCCc1nnsc1C(=O)N1CCN(CC(O)C2CC2)CC1 (configuration not stated) | 14.6 |
| CCCc1nnsc1C(=O)N1CCN(CC(O)c2ccco2)CC1 (configuration not stated) | -0.0412 |
| COc1ccc(CNC(=O)N2CCN(CC(O)C3CC3)CC2)cc1 (configuration not stated) | -3 |
| O=C(CN1CCN(CC(O)C2CC2)CC1)NCc1ccccc1Cl (configuration not stated) | -10.5 |
| OC(CN1CCN(Cc2cccc(F)c2)CC1)C1CC1 (configuration not stated) | -11.3 |
| OC(CN1CCN(Cc2cccnc2)CC1)c1cccs1 (configuration not stated) | -3.13 |
| CCO[C@@H]1C[C@H]2CN(S(=O)(=O)c3cccs3)CCN2C1 | -4.39 |
| O=C1COC2(CCN(c3ccccn3)CC2)CN1 | -19.6 |
| COc1ncnc2c1CCN(Cc1nccs1)CC2 | -8.56 |
| CN(C)[C@@H]1CCN(C(=O)C2CCOCC2)[C@H]1Cc1ccncc1 | 6.4 |
| CN(C)C(=O)CN1CC[C@H]2[C@H]1CCN2c1ncccn1 | -20.8 |
| CCN(C)c1ncnc2c1CCN(Cc1nccs1)CC2 | 6.96 |
